This data set deals with rodent lifetime carcinogenesis bioassay, tumor incidence TD50. As to the kind of experiment: chronic cancer bioassays in animals – CPDB, compiled studies (AID 1745844).

SMILES strings stand for the structures. “And” between values parts separate entries of the source, which are not always exact repeats. Equal values may be shown once. The source made the active and inactive calls. The rule behind the calls is not given here.

Take `Cc1ccccc1N`: the TD50 is, setting by setting: (mouse, strain B6C3F1, females, in feed, site: any site (literature study), lesion: several types, types named in the paper, dosed 102 weeks, study length 102 weeks) 1350 mg/kg/day; (mouse, strain B6C3F1, females, in feed, site: liver, lesion: hepatocellular adenoma + hepatocellular carcinoma + neoplastic nodule, dosed 102 weeks, study length 102 weeks) 754 mg/kg/day; (mouse, strain B6C3F1, females, in feed, site: liver, lesion: hepatocellular adenoma + hepatocellular carcinoma, dosed 102 weeks, study length 102 weeks) 754 mg/kg/day; (mouse, strain B6C3F1, females, in feed, site: liver, lesion: hepatocellular carcinoma, dosed 102 weeks, study length 102 weeks) 1520 mg/kg/day; (mouse, strain B6C3F1, males, in feed, site: all sites, lesion: hemangioma + hemangiosarcoma, dosed 102 weeks, study length 102 weeks) 926 mg/kg/day; (mouse, strain B6C3F1, males, in feed, site: all sites, lesion: hemangiosarcoma, dosed 102 weeks, study length 102 weeks) 1220 mg/kg/day. The TD50 is 12700 mg/kg/day (mouse, strain B6C3F1, males, in feed, site: liver, lesion: hepatocellular adenoma + hepatocellular carcinoma + neoplastic nodule, dosed 102 weeks, study length 102 weeks); 1240 mg/kg/day (mouse, strain CD-1 HaM/ICR, females, in feed, site: all sites, lesion: all vascular tumors, dosed 68 weeks, study length 90 weeks); 699 mg/kg/day (mouse, strain CD-1 HaM/ICR, females, in feed, site: any site (literature study), lesion: several types, types named in the paper, dosed 68 weeks, study length 90 weeks); 1650 mg/kg/day (inactive) (mouse, strain CD-1 HaM/ICR, females, in feed, site: liver, lesion: several types, types named in the paper, dosed 68 weeks, study length 90 weeks); 646 mg/kg/day and 660 mg/kg/day (mouse, strain CD-1 HaM/ICR, males, in feed, site: all sites, lesion: all vascular tumors, dosed 68 weeks, study length 90 weeks); 325 mg/kg/day (mouse, strain CD-1 HaM/ICR, males, in feed, site: any site (literature study), lesion: several types, types named in the paper, dosed 68 weeks, study length 90 weeks). In addition, the TD50 by setting is: (mouse, strain CD-1 HaM/ICR, males, in feed, site: liver, lesion: several types, types named in the paper, dosed 68 weeks, study length 90 weeks) 1400 mg/kg/day (inactive); (mouse, strain CD-1 HaM/ICR, males, in feed, site: lung, lesion: several types, types named in the paper, dosed 68 weeks, study length 90 weeks) 1160 mg/kg/day (inactive); (rat, strain Charles River CD (Sprague-Dawley), males, in feed, site: any site (literature study), lesion: several types, types named in the paper, dosed 64 weeks, study length 68 weeks) 36.1 mg/kg/day; (rat, strain Charles River CD (Sprague-Dawley), males, in feed, site: liver, lesion: several types, types named in the paper, dosed 64 weeks, study length 68 weeks) 2960 mg/kg/day (inactive); (rat, strain Charles River CD (Sprague-Dawley), males, in feed, site: subcutaneous tissue, lesion: several types, types named in the paper, dosed 64 weeks, study length 68 weeks) 36.7 mg/kg/day and 38.8 mg/kg/day; (rat, strain Charles River CD (Sprague-Dawley), males, in feed, site: urinary bladder, lesion: several types, types named in the paper, dosed 64 weeks, study length 68 weeks) 131 mg/kg/day. In addition, the TD50 is 75.8 mg/kg/day (rat, strain Fischer 344, females, in feed, site: any site (literature study), lesion: several types, types named in the paper, dosed 104 weeks, study length 104 weeks); 77.9 mg/kg/day (rat, strain Fischer 344, females, in feed, site: mammary gland + multiple organs + spleen + urinary bladder, lesion: adenoma, NOS + fibroadenoma + angiosarcoma + fibrosarcoma + osteosarcoma + sarcoma, NOS + transitional-cell carcinoma + transitional-c, dosed 104 weeks, study length 104 weeks); 119 mg/kg/day (rat, strain Fischer 344, females, in feed, site: mammary gland, lesion: adenoma, NOS + fibroadenoma, dosed 104 weeks, study length 104 weeks); 115 mg/kg/day (rat, strain Fischer 344, females, in feed, site: mammary gland, lesion: fibroadenoma, dosed 104 weeks, study length 104 weeks); 332 mg/kg/day (rat, strain Fischer 344, females, in feed, site: multiple organs, lesion: angiosarcoma + fibrosarcoma + osteosarcoma + sarcoma, NOS, dosed 104 weeks, study length 104 weeks); 423 mg/kg/day (rat, strain Fischer 344, females, in feed, site: multiple organs, lesion: osteosarcoma, dosed 104 weeks, study length 104 weeks). For the same compound, the TD50 is, setting by setting: (rat, strain Fischer 344, females, in feed, site: spleen, lesion: angiosarcoma + osteosarcoma + sarcoma, NOS, dosed 104 weeks, study length 104 weeks) 337 mg/kg/day; (rat, strain Fischer 344, females, in feed, site: spleen, lesion: angiosarcoma, dosed 104 weeks, study length 104 weeks) 450 mg/kg/day; (rat, strain Fischer 344, females, in feed, site: urinary bladder, lesion: transitional-cell carcinoma + transitional-cell papilloma, dosed 104 weeks, study length 104 weeks) 175 mg/kg/day; (rat, strain Fischer 344, females, in feed, site: urinary bladder, lesion: transitional-cell carcinoma, dosed 104 weeks, study length 104 weeks) 185 mg/kg/day; (rat, strain Fischer 344, males, in feed, site: any site (literature study), lesion: several types, types named in the paper, dosed 102 weeks, study length 104 weeks) 24.4 mg/kg/day; (rat, strain Fischer 344, males, in feed, site: liver, lesion: hepatocellular adenoma + hepatocellular carcinoma + neoplastic nodule, dosed 102 weeks, study length 104 weeks) 645 mg/kg/day. The TD50 runs as follows: (rat, strain Fischer 344, males, in feed, site: liver, lesion: several types, types named in the paper, dosed 72 weeks, study length 93 weeks) 1000 mg/kg/day; (rat, strain Fischer 344, males, in feed, site: mammary tissue, wider than the gland, lesion: fibroadenoma, dosed 72 weeks, study length 93 weeks) 149 mg/kg/day; (rat, strain Fischer 344, males, in feed, site: multiple organs + spleen + subcutaneous tissue + tunica vaginalis, lesion: angiosarcoma + fibrosarcoma + mesothelioma + osteosarcoma + sarcoma, NOS + fibroma, dosed 102 weeks, study length 104 weeks) 23.3 mg/kg/day; (rat, strain Fischer 344, males, in feed, site: multiple organs + tunica vaginalis, lesion: mesothelioma, dosed 102 weeks, study length 104 weeks) 97.4 mg/kg/day; (rat, strain Fischer 344, males, in feed, site: multiple organs, lesion: angiosarcoma + fibrosarcoma + osteosarcoma + sarcoma, NOS, dosed 102 weeks, study length 104 weeks) 93.2 mg/kg/day; (rat, strain Fischer 344, males, in feed, site: multiple organs, lesion: fibrosarcoma, dosed 102 weeks, study length 104 weeks) 184 mg/kg/day. Moreover, the TD50 is, setting by setting: (rat, strain Fischer 344, males, in feed, site: multiple organs, lesion: sarcoma, NOS, dosed 102 weeks, study length 104 weeks) 394 mg/kg/day; (rat, strain Fischer 344, males, in feed, site: peritoneal cavity, lesion: spindle-cell sarcoma, dosed 72 weeks, study length 93 weeks) 190 mg/kg/day; (rat, strain Fischer 344, males, in feed, site: skin, lesion: fibroma, dosed 72 weeks, study length 93 weeks) 38.7 mg/kg/day; (rat, strain Fischer 344, males, in feed, site: spleen, lesion: fibroma, dosed 72 weeks, study length 93 weeks) 167 mg/kg/day; (rat, strain Fischer 344, males, in feed, site: spleen, lesion: fibroma, dosed 102 weeks, study length 104 weeks) 134 mg/kg/day; (rat, strain Fischer 344, males, in feed, site: subcutaneous tissue, lesion: fibroma, dosed 102 weeks, study length 104 weeks) 33.3 mg/kg/day. For the same compound, where the note is “rat, strain Fischer 344, males, in feed, site: urinary bladder, lesion: several types, types named in the paper, dosed 72 weeks, study length 93 weeks”, the TD50 was 474 mg/kg/day. Besides, under “mouse, strain CD-1 HaM/ICR, females, in feed, site: lung, lesion: several types, types named in the paper, dosed 68 weeks, study length 90 weeks”, the carcinogen call is “negative (inactive)”.
Turning to `CC(C)OC(=O)COc1ccc(Cl)cc1Cl`, the TD50 reads like this: (mouse, strain B6AKF1, females, oral dosing, site: any site (literature study), lesion: several types, types named in the paper, dosed 76 weeks, study length 76 weeks) 83.2 mg/kg/day (inactive); (mouse, strain B6AKF1, females, oral dosing, site: liver, lesion: hepatocellular carcinoma, dosed 76 weeks, study length 76 weeks) 94.7 mg/kg/day (inactive); (mouse, strain B6C3F1, females, oral dosing, site: any site (literature study), lesion: several types, types named in the paper, dosed 76 weeks, study length 76 weeks) 48.7 mg/kg/day (inactive); (mouse, strain B6C3F1, females, oral dosing, site: liver, lesion: hepatoma, dosed 76 weeks, study length 76 weeks) 100 mg/kg/day (inactive); (mouse, strain B6C3F1, females, oral dosing, site: lung, lesion: adenoma, dosed 76 weeks, study length 76 weeks) 100 mg/kg/day (inactive); (mouse, strain B6C3F1, males, oral dosing, site: any site (literature study), lesion: several types, types named in the paper, dosed 76 weeks, study length 76 weeks) 16.4 mg/kg/day (inactive). Also, the TD50 (mouse, strain B6C3F1, males, oral dosing, site: liver, lesion: hepatoma, dosed 76 weeks, study length 76 weeks) was 93.6 mg/kg/day (inactive) and the TD50 (mouse, strain B6C3F1, males, oral dosing, site: lung, lesion: adenoma, dosed 76 weeks, study length 76 weeks) was 21.3 mg/kg/day (inactive). Besides, the carcinogen call is “negative (inactive)” (mouse, strain B6AKF1, females, oral dosing, site: lung, lesion: adenoma, dosed 76 weeks, study length 76 weeks); “negative (inactive)” (mouse, strain B6AKF1, males, oral dosing, site: any site (literature study), lesion: several types, types named in the paper, dosed 76 weeks, study length 76 weeks); “negative (inactive)” (mouse, strain B6AKF1, males, oral dosing, site: liver, lesion: hepatoma, dosed 76 weeks, study length 76 weeks); “negative (inactive)” (mouse, strain B6AKF1, males, oral dosing, site: lung, lesion: adenoma, dosed 76 weeks, study length 76 weeks).
`ClC(Cl)=C(Cl)C(Cl)=C(Cl)Cl`: the TD50 (rat, strain Sprague-Dawley Spartan, females, in feed, site: any site (literature study), lesion: several types, types named in the paper, dosed 104 weeks, study length 104 weeks) was found to be 9.84 mg/kg/day; the TD50 (rat, strain Sprague-Dawley Spartan, females, in feed, site: kidney, lesion: several types, types named in the paper, dosed 104 weeks, study length 104 weeks) is 94.4 mg/kg/day; the TD50 (rat, strain Sprague-Dawley Spartan, males, in feed, site: kidney, lesion: several types, types named in the paper, dosed 95 weeks, study length 95 weeks) is 50.5 mg/kg/day. In addition, the carcinogen call (rat, strain Sprague-Dawley Spartan, females, in feed, site: liver, lesion: hepatocellular tumor, malignant, dosed 104 weeks, study length 104 weeks) was “negative (inactive)” and the carcinogen call (rat, strain Sprague-Dawley Spartan, males, in feed, site: liver, lesion: hepatocellular carcinoma, dosed 95 weeks, study length 95 weeks) is “negative (inactive)”.
Turning to `FC(F)OC(F)(F)C(F)Cl` (stereo not given), the carcinogen call reads like this: (mouse, strain Swiss/ICR, females, inhaled, site: liver, lesion: one or several types, types not named, dosed 52 weeks, study length 52 weeks) “negative (inactive)”; (mouse, strain Swiss/ICR, females, inhaled, site: liver, lesion: several types, types named in the paper, dosed 78 weeks, study length 82 weeks) “negative (inactive)”; (mouse, strain Swiss/ICR, males, inhaled, site: lung, lesion: adenoma, dosed 52 weeks, study length 52 weeks) “negative (inactive)”. Further, the TD50 is, setting by setting: (mouse, strain Swiss/ICR, females, inhaled, site: lung, lesion: adenoma, dosed 52 weeks, study length 52 weeks) 8930 mg/kg/day (inactive); (mouse, strain Swiss/ICR, females, inhaled, site: lung, lesion: adenoma, dosed 78 weeks, study length 82 weeks) 18900 mg/kg/day (inactive); (mouse, strain Swiss/ICR, males, inhaled, site: liver, lesion: several types, types named in the paper, dosed 52 weeks, study length 52 weeks) 8120 mg/kg/day (inactive); (mouse, strain Swiss/ICR, males, inhaled, site: liver, lesion: several types, types named in the paper, dosed 78 weeks, study length 82 weeks) 11700 mg/kg/day (inactive); (mouse, strain Swiss/ICR, males, inhaled, site: lung, lesion: adenoma, dosed 78 weeks, study length 82 weeks) 60900 mg/kg/day (inactive).
As for `C#C[C@]1(OC(C)=O)CC[C@H]2[C@@H]3CCC4=C[C@@H](OC(C)=O)CC[C@@H]4[C@H]3CC[C@@]21C`, the carcinogen call (rat, strain Wistary/NIN, females, by gavage, site: liver, lesion: one or several types, types not named, dosed 60 weeks, study length 60 weeks) was “negative (inactive)”.

By TD50 is commonly meant the 50% point of the dose-response relation for the toxic effect studied.

The values are drawn from PubChem BioAssay AID1745844 (Carcinogenic Potency Database (CPDB), 2022).
